Measurements from patent publication US20120201802A1, “METHOD FOR PRODUCING REDUCED COENZYME Q10, METHOD FOR STABILIZING SAME, AND COMPOSITION COMPRISING SAME” (Keneka Corporation, priority 2009, published 2012).

Columns and labels:
[1] = Reduction of oxidized coenzyme Q10 in limonene (Example 2, Comparative Example 2); settings: after reaction, oxidized CoQ10 0.1 g + plant extract 1.0 g or compound 0.69 mmol, 85° C., 16 hr, nitrogen atmosphere
Description: While the present invention is explained in more detail in the following by referring to Examples, the present invention is not limited to those Examples alone. Moreover, the purity of reduced coenzyme Q10, the weight ratio of reduced coenzyme Q10/oxidized coenzyme Q10, and the like in the Examples were measured by the following HPLC analysis. […] To conveniently indicate the weight ratio of reduced coenzyme Q10 and oxidized coenzyme Q10 in the present Example, the ratio of reduced coenzyme Q10 to the total amount of coenzyme Q10 (total amount of oxidized coenzyme Q10 and reduced coenzyme Q10) is shown in percentage as a “weight ratio of reduced coenzyme Q10”. For example, “the weight ratio of reduced coenzyme Q10 is 20%” means that the weight ratio of reduced coenzyme Q10 and oxidized coenzyme Q10 is 20/80. • (HPLC analysis conditions) • column; SYMMETRY C18 (manufactured by Waters) 250 mm (length) 4.6 mm (inner diameter), • mobile phase; C2H5OH:CH3OH=4:3 (v:v), • detection wavelength; 210 nm, • flow rate; 1 ml/min, • retention time of reduced coenzyme Q10; 9.1 min, • retention time of oxidized coenzyme Q10; 13.3 min. […]

[2] = Reduction of oxidized coenzyme Q10 in Span 80/glycerol/Tween 80/MCT mixture (Example 3, Comparative Example 3); settings: after reaction, oxidized CoQ10 0.1 g + plant extract 1.0 g or compound 0.69 mmol, 80° C., 16 hr, nitrogen atmosphere
Description: (§1) While the present invention is explained in more detail in the following by referring to Examples, the present invention is not limited to those Examples alone. Moreover, the purity of reduced coenzyme Q10, the weight ratio of reduced coenzyme Q10/oxidized coenzyme Q10, and the like in the Examples were measured by the following HPLC analysis. […] To conveniently indicate the weight ratio of reduced coenzyme Q10 and oxidized coenzyme Q10 in the present Example, the ratio of reduced coenzyme Q10 to the total amount of coenzyme Q10 (total amount of oxidized coenzyme Q10 and reduced coenzyme Q10) is shown in percentage as a “weight ratio of reduced coenzyme Q10”. For example, “the weight ratio of reduced coenzyme Q10 is 20%” means that the weight ratio of reduced coenzyme Q10 and oxidized coenzyme Q10 is 20/80. • (HPLC analysis conditions) • column; SYMMETRY C18 (manufactured by Waters) 250 mm (length) 4.6 mm (inner diameter), • mobile phase; C2H5OH:CH3OH=4:3 (v:v), • detection wavelength; 210 nm, • flow rate; 1 ml/min, • retention time of reduced coenzyme Q10; 9.1 min, • retention time of oxidized coenzyme Q10; 13.3 min.
Oxidized coenzyme Q10 crystal (0.1 g) and a component derived from a naturally-occurring substance described in Table 3 (plant extract, 1.0 g, 10-fold weight) or a compound (0.69 mmol) were respectively added to a mixture of Span 80 (0.12 g), glycerol (0.09 g), Tween 80 (1.49 g) and MCT (0.43 g), and the mixture was stirred at 80° C. for 16 hr under a nitrogen atmosphere.

[3] = Reduction of oxidized coenzyme Q10 in 99% ethanol (Example 1, Comparative Example 1); settings: after reaction, oxidized CoQ10 0.1 g + plant extract 1.0 g (10-fold weight) or compound 0.69 mmol, 78° C., 16 hr, nitrogen atmosphere
Description: as §1
Oxidized coenzyme Q10 crystal (0.1 g) and a component derived from a naturally-occurring substance (plant extract, 1.0 g, 10-fold weight) described in Table 1 were respectively added to 99% ethanol (15 g), and the mixture was stirred at 78° C. for 16 hr under a nitrogen atmosphere.
Oxidized coenzyme Q10 crystal (0.1 g, 0.12 mmol) and the compound described in Table 1 (0.69 mmol) were respectively added to 99% ethanol (15 g), and the mixture was stirred at 78° C. for 16 hr under a nitrogen atmosphere.

| Compound | weight ratio of reduced coenzyme Q10 [1] [%] | weight ratio of reduced coenzyme Q10 [2] [%] | weight ratio of reduced coenzyme Q10 [3] [%] |
| --- | --- | --- | --- |
| O=C1O[C@H]([C@@H](O)CO)C([O-])=C1O.[Na+] [L-sodium ascorbate] | 1 | – | – |
| O=C(O)CCCC[C@@H](S)CCS [R-dihydrolipoic acid] | 1 | – | – |
| CC1=C(/C=C/C(C)=C/C=C/C(C)=C/C=O)C(C)(C)CCC1 [retinal] | – | 3 | 4 |
| Cc1c(C)c2c(c(C)c1O)CC[C@@](C)(CCC[C@H](C)CCC[C@H](C)CCCC(C)C)O2 [α-tocopherol] | – | 0 | – |

Results, then the compound that gave them:

| weight ratio of reduced coenzyme Q10 [1] [%] | weight ratio of reduced coenzyme Q10 [2] [%] | weight ratio of reduced coenzyme Q10 [3] [%] | Compound |
| --- | --- | --- | --- |
| – | 0 | 2 | NC(=O)C1=CN([C@@H]2O[C@H](COP(=O)(O)OP(=O)(O)OC[C@H]3O[C@@H](n4cnc5c(N)ncnc54)[C@H](O)[C@@H]3O)[C@@H](O)[C@H]2O)C=CC1 [NADH] |
| – | 0 | 0 | C[N+](C)(C)CC(O)CC(=O)[O-] (stereo not shown) [carnitine] |
| – | – | 4 | retinol acetate |
